In patent publication US10844045B2, “Pharmaceutical salts N-(2-(2-(dimethylamino)ethoxy)-4-methoxy-5-((4-(1-methyl-1H-indol-3-yl)pyrimidin-2-yl)amino)phenyl)acrylamide and crystalline forms thereof” (Beta Pharma, Inc., priority 2016, dated 2020):
Counter-ions that a name gives are not always drawn. Like-named read-outs stand apart in the source and are kept apart here.

Assays:
[1] = Solubility of salt forms; type: physicochemical; conditions: for Final pH: final pH of the solubility test
[2] = test system: kinase domain of the T790M double mutant; conditions: cited from earlier work
[3] = Dynamic vapor sorption (DVS); type: physicochemical; conditions: for hygroscopicity classification according to DVS results / weight gain (DVS): from 0 to 80% RH

Compound	Solubility [1]	Final pH [1]	inhibition of the kinase domain of the T790M double mutant [2]	Solubility ([1]; read-out: Solubility)	DVS Sorption [3]	hygroscopicity classification according to DVS results [3]	weight gain (DVS) [3]	DVS Sorption ([3]; listed as 2 (Form 2A))
C=CC(=O)Nc1cc(Nc2nccc(-c3cn(C)c4ccccc34)n2)c(OC)cc1OCCN(C)C [Compound 1, N-(2-(2-(Dimethylamino)ethoxy)-4-methoxy-5-((4-(1-methyl-1H-indol-3-yl)pyrimidin-2-yl)amino)phenyl)acrylamide]	0.05 mg/mL	6.2	effectively inhibits					
C=CC(=O)Nc1cc(Nc2nccc(-c3cn(C)c4ccccc34)n2)c(OC)cc1OCCN(C)C.Cc1ccc(S(=O)(=O)O)cc1 [Compound 5, N-(2-(2-(Dimethylamino)ethoxy)-4-methoxy-5-((4-(1-methyl-1H-indol-3-yl)pyrimidin-2-yl)amino)phenyl)acrylamide p-toluenesulfonate (1:1)]		5.8		0.53 mg/mL	1.86%	slightly hygroscopic	1.86%	
C=CC(=O)Nc1cc(Nc2nccc(-c3cn(C)c4ccccc34)n2)c(OC)cc1OCCN(C)C [Compound 4, N-(2-(2-(Dimethylamino)ethoxy)-4-methoxy-5-((4-(1-methyl-1H-indol-3-yl)pyrimidin-2-yl)amino)phenyl)acrylamide sulfate (1:1)]	>79 mg/mL	2.4			10.60%	hygroscopic	10.60%	
C=CC(=O)Nc1cc(Nc2nccc(-c3cn(C)c4ccccc34)n2)c(OC)cc1OCCN(C)C.Cl [Compound 3, N-(2-(2-(Dimethylamino)ethoxy)-4-methoxy-5-((4-(1-methyl-1H-indol-3-yl)pyrimidin-2-yl)amino)phenyl)acrylamide hydrochloride (1:1)]		6.0		0.81 mg/mL	0.76%	slightly hygroscopic	0.76%	
C=CC(=O)Nc1cc(Nc2nccc(-c3cn(C)c4ccccc34)n2)c(OC)cc1OCCN(C)C [Compound 2, N-(2-(2-(Dimethylamino)ethoxy)-4-methoxy-5-((4-(1-methyl-1H-indol-3-yl)pyrimidin-2-yl)amino)phenyl)acrylamide methanesulfonate (1:1)]	>53 mg/mL	4.9				hygroscopic	14.44%	0.91%
C=CC(=O)Nc1cc(Nc2nccc(-c3cn(C)c4ccccc34)n2)c(OC)cc1OCCN(C)C [Compound 6, N-(2-(2-(Dimethylamino)ethoxy)-4-methoxy-5-((4-(1-methyl-1H-indol-3-yl)pyrimidin-2-yl)amino)phenyl)acrylamide citrate (1:1)]	6.9 mg/mL	4.6						
C=CC(=O)Nc1cc(Nc2nccc(-c3cn(C)c4ccccc34)n2)c(OC)cc1OCCN(C)C [3 (Form 2B), N-(2-(2-(Dimethylamino)ethoxy)-4-methoxy-5-((4-(1-methyl-1H-indol-3-yl)pyrimidin-2-yl)amino)phenyl)acrylamide methanesulfonate (1:1)]					14.44%			
